The values below are quoted from earlier work in US20070020642A1, “Structural interaction fingerprint” (priority 2003, published 2007).

This data set addresses p38 (Homo sapiens, UniProt Q16539). To be noted: result in words, known from the literature.

Sequence of p38 (Q16539 whole entry): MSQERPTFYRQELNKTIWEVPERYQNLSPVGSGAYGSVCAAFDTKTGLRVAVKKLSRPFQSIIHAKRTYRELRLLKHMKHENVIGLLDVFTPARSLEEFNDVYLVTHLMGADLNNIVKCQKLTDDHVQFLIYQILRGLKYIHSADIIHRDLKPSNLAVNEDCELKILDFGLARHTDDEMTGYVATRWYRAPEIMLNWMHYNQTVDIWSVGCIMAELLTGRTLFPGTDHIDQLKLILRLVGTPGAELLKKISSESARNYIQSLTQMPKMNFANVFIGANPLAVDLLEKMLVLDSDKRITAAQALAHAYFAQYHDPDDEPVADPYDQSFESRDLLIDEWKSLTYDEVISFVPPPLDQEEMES

Consider `Fc1ccc(-c2nc3n(c2-c2ccncc2)CCS3)cc1` [SKF-86002], for which the p38 inhibition activity result was “potent p38 inhibitors”.

With `O=C(C(=C1SCS1)c1ccncc1)c1ccc(OC(F)(F)F)cc1` [Cmp-59076, 2-[1,3]Dithietan-2-pyridin-4-yl-1-(4-trifluoromethoxy-phenyl)-ethanone], the p38 inhibition activity result is recorded as “no p38 inhibition activity”.
